Laboratory results reported in paper PMC6429200, “Synthesis and Broad Antiviral Activity of Novel 2-aryl-isoindolin-1-ones towards Diverse Enterovirus A71 Clinical Isolates” (Molecules, 2019).
Where “and” joins values, the source holds several entries; their conditions need not be identical. Equal values may be shown once.

Key:
EV-A71 = assay: Viral titer reduction assay; type: cell-based, Enterovirus 71 (EV-A71); conditions: cells treated after EV-A71 infection
Procedure: (§1) To further confirm the anti-EV-A71 activity, the expression levels of VP1 RNA and protein were determined. Vero cells were infected with the H strain of EV-A71 for 1 h followed by treatment with A3 of various concentrations for another 24 h. […] Meanwhile, the antiviral efficacy of A3 was also tested using viral titer reduction assays.
Figure 2 Compound A3 inhibited EV-A71 replication in vitro. Vero cells (9 × 10^5 cells/well) were plated into 6-well culture plates and infected with EV-A71 (multiplicity of infection, MOI = 0.1) for 1 h. The infected cells were then treated with the indicated concentrations of A3 for 24 h. Intracellular viral VP1 protein (A) and RNA (B) were determined by Western blot and qRT-PCR assays, respectively. (C) The inhibition of a viral titer by A3. ** p < 0.01 * p < 0.05.

[1] = test system: EV-A71 (H strain) VP1 RNA; assay: qRT-PCR of VP1 RNA in infected Vero cells; type: cell-based, Enterovirus 71 (EV-A71); conditions: H strain MOI = 0.1, 1 h infection then A3 for 24 h, RT-qPCR
Procedure: as §1
Vero cells (9 × 10^5cells/well) were plated into 6-well culture plates for incubation for 16 h. The medium was removed and cells were infected with EV-A71 (H, MOI = 0.1). After 1 h, various concentrations of A3 were supplemented and incubated for another 24 h. The total RNA of the infected cells was extracted using the RNeasy Mini kit (QIAGEN) according to the manufacturer’s instructions. […] The RNA expression of EV-A71 VP1 was detected with the sense primer 5′-GATATCCCACATTCGGTGA-3′ and the antisense primer 5′-[…] -3′ targeting a conserved region of the VP1 gene. β-Actin mRNA was detected using the sense primers 5′-TGACGGGGT CACCCACA CTGTGCCCATCTA-3′ and the antisense primer 5′-CTAGAAGCATTTG CGGTGGACG ATG-3′. […] The relative amounts of EV-A71 VP1 mRNA were calculated by the comparative Ct method after normalizing the quantity of β-actin [15].
Figure 2 Compound A3 inhibited EV-A71 replication in vitro. […] Intracellular viral VP1 protein (A) and RNA (B) were determined by Western blot and qRT-PCR assays, respectively. […]

[2] = Cytotoxicity assay (CPE) on Vero cells; type: cell-based; conditions: African green monkey; Vero cells, 3 days of incubation, Reed–Muench; read-out: CC50
Procedure: (§2) An in-vitro antiviral assay was established using the Africa monkey kidney cell line Vero which was infected with different EV-A71 clinical isolates (BrCr, H, Shenzhen98 and Jiangsu52). A total of 24 synthetic compounds were initially screened in such an assay to determine their inhibitory effect on virus replication at 3-fold diluted concentrations serial (400~0.18 μM). The 50% effective concentration (EC50) of each compound was calculated according to its inhibitory rate values with the Reed–Muench method. The 50% cytotoxic concentration (CC50) was defined as the concentration that inhibited 50% cellular growth in comparison with the controls. The selectivity index (SI) was calculated as CC50/EC50. […] Generally, the EV-A71 H strain was less sensitive to most of the active compounds as compared to the other virus strains.
African green monkey kidney (Vero) cells were purchased from the American Type Culture Collection (ATCC) and were cultured in minimum essential medium (MEM) supplemented with 10% fetal bovine serum (FBS) (GIBCO) and antibiotics (100 U/mL penicillin and […] streptomycin) at 37 °C in a 5% CO2 incubator.
The cytotoxic effects of compounds on Vero cells were detected by the cytopathic effect (CPE) assay. Briefly, cells (3 × 10^4 cells/well) were seeded into 96-well culture plates and incubated overnight. Then, the medium was removed and different concentrations of compounds were applied in triplicate. After 3 days of incubation, the CC50 was defined as the concentration that inhibited 50% cellular growth in comparison with the untreated controls, as calculated by the Reed–Muench method.

[3] = test system: four EV-A71 strains (BrCr, H, Shenzhen98, Jiangsu52); assay: CPE inhibition assay, summary over four EV-A71 strains; type: cell-based, Enterovirus 71 (EV-A71)
Procedure: as §2
(§3) The anti-EV-A71 activity of compounds was determined by the CPE inhibition method. Briefly, cells (3 × 10^4 cells/well) were plated into 96-well culture plates for incubation for 24 h. The medium was then removed and cells were infected with EV-A71 with 100TCID50 (50% tissue culture infective doses) in serum-free medium for 1 h at 37 °C. Then, the unbound viruses were removed and various concentrations of compounds were supplemented and incubated for another 48 h. The EC50 was determined by the Reed–Muench method. The selectivity index was calculated as the ratio of CC50/EC50 [15].

[4] = test system: EV-A71 strain ShenZhen98 (SZ98); assay: CPE inhibition assay for anti-EV-A71 in Vero cells, Shenzhen98 strain; type: cell-based, Enterovirus 71 (EV-A71)
Procedure: as §2
(§4) EV-A71 strain ShenZhen98 (SZ98) was isolated from the throat swab sample of an HFMD case which occurred in 1998 in China. This was kindly provided by Dr. Qi Jin, Institute of Pathogen Biology, Chinese Academy of Medical Science and Peking Union Medical School, Beijing, China. EV-A71 strains BrCr (VR-1775) and H (VR-1432) were purchased from the ATCC. The EV-A71 strain JS52 was a kind gift from Dr. Xiangzhong Ye, Beijing Wantai Biological Pharmacy Enterprise Co., Ltd. EV-A71 were all passaged in Vero cells.
as §3

EV-A71 strain BrCr = assay: CPE inhibition assay for anti-EV-A71 in Vero cells, BrCr strain; type: cell-based, Enterovirus 71 (EV-A71)
Procedure: as §2, §4, §3

[5] = Enterovirus A, EVA71, Vero cells, 100TCID50, 48 h

O=C1c2ccccc2CN1c1ccc(Cl)cc1 [Compound A3, 2-(4-chlorophenyl)isoindolin-1-one]
viral titers (EV-A71): dose-dependent reduction in viral titers | VP1 RNA expression level [1]: significantly reduced VP1 RNA expression level in a dose-dependent way | CC50 at 3 days [2]: 257 ± 35.3 µM | SI towards four EV-A71 strains ([3]; CC50/EC50, range over four strains): 168-199 and 98–199 | IC50 ([3]; Enterovirus A, EV71 / EVA71, read-out: Anti-EV71 IC50): 1290 to 1530 nM | EC50 ([3]; Enterovirus A, EVA71, Vero, read-out: EC50 towards four EV-A71 strains): 1230 to 1760 nM | EC50 fold higher than pirodavir ([3]; relative to reference compound pirodavir): 2–4 fold | Shenzhen98 SI ([4]; CC50/EC50): 199 | EC50 [4, 5]: 1290 ± 240 nM | BrCr SI (EV-A71 strain BrCr; CC50/EC50): 199 | EC50 (EV-A71 strain BrCr; [5]): 1290 ± 240 nM
